Source: patent US5250542A, “Peripherally selective piperidine carboxylate opioid antagonists” (Eli Lilly and Company, priority 1992, dated 1993)
Structures can show the parent of a compound that is named as a salt. Where two headings read alike, the source gives them in different places.

Tests used:
[1] = target: T1, peripheral opioid receptors (Mus musculus, UniProt P42866); test: precipitated diarrhea in morphine-maintained mice (peripheral opioid activity) and comparison with the writhing test; format: in vivo; design: ED50 (diarrhea): unit not given beside the values; conditions: for Ratio (AD50 mouse writhing test / ED50 mouse diarrhea test): higher ratio = greater relative antagonism of peripheral opioid receptors; for ED50: mouse, 0.5 h; for ED50 / ED50 (diarrhea): morphine-maintained mice, antagonist subcutaneous or oral, 30 min observation; for ED50 (diarrhea): 30 min
T1 construct: Mice maintained (6 mice/cage) on 0.01M saccharin water with 1 g/1 morphine sulfate; from tissue; host or cells: living morphine-maintained mice (in vivo test; endogenous receptor)
Method in brief: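 Morphine-dependent mice (1 g/l morphine sulfate in drinking water ≥10 days, withdrawn 45 min before dosing) received antagonist subcutaneously or orally, 5 mice/dose. Diarrhea (and jumping) were scored over 30 min and doses lowered to find the diarrhea threshold. Peripheral selectivity was taken as writhing AD50 divided by diarrhea ED50.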

mu receptor = target: T2, mu receptor (Rattus norvegicus, UniProt P33535); test: opioid receptor binding assay, [3H] NAL (tritiated naloxone), mu receptor; design: species or system rat (Male Sprague Dawley), brain minus cerebellum; conditions: for inhibition at 0.01 µM / inhibition at 0.1 µM: 20 min
T2 construct: rat whole brain minus cerebellum for mu was homogenized; from tissue; host or cells: brain of male Sprague Dawley rats, whole brain minus cerebellum, homogenate fraction
Method in brief: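 Displacement of [3H]naloxone was measured on rat whole brain minus cerebellum membranes, preincubated 20 min and incubated 20 min at 37° C, with filtration separating bound ligand. Ki was derived from IC50 and ligand KD. Percent displacement was also recorded at 10 nM and 100 nM test compound.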

opioid receptor = target: T3, opioid receptor (Mus musculus, UniProt P42866); test: mouse writhing analgesis test: block of morphine-induced analgesia; format: in vivo, CF-1 male mice; design: unit not given here; conditions: dose of antagonist that reduced the inhibition of writhing produced by 1.25 mg/kg morphine sulfate to 50%, subcutaneous, 20 min before acetic acid
T3 construct: Five CF-1 male mice (Charles River, Portage, Mich.); from tissue; host or cells: living CF-1 male mice (in vivo test; endogenous receptor)
Method in brief: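 Male CF-1 mice (~20 g, fasted overnight, n=5) dosed subcutaneously 20 min before i.p. 0.6% acetic acid; writhes counted for 10 min starting 5 min post-injection. Antagonism measured as blockade of morphine-induced inhibition of writhing, percent versus vehicle controls; ED50 defined as 50% writhing inhibition.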

[2] = read-out: % displacement at 10 nM, 10 nM test compound, [3H] naloxone 0.5 nM
[3] = read-out: % displacement at 100 nM, 100 nM test compound, [3H] naloxone 0.5 nM
[4] = 10 nM test compound, [3H] naloxone 0.5 nM, read-out: % displacement at 10 nM
[5] = read-out: % displacement at 100 nM
[6] = 100 nM test compound, [3H] naloxone 0.5 nM, read-out: % displacement at 100 nM
[7] = read-out: % displacement at 10 nM

T2 sequence (P33535 whole entry): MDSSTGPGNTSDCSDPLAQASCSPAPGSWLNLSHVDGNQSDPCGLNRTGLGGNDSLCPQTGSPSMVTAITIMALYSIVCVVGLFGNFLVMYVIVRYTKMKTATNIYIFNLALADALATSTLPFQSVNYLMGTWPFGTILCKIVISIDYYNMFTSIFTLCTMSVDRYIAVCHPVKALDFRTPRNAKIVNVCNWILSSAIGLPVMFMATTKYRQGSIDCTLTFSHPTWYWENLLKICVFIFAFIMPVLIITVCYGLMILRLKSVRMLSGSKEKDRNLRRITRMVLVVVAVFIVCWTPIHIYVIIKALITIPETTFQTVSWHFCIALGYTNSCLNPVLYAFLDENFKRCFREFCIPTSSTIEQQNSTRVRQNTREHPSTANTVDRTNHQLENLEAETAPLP
T1 sequence (P42866 whole entry): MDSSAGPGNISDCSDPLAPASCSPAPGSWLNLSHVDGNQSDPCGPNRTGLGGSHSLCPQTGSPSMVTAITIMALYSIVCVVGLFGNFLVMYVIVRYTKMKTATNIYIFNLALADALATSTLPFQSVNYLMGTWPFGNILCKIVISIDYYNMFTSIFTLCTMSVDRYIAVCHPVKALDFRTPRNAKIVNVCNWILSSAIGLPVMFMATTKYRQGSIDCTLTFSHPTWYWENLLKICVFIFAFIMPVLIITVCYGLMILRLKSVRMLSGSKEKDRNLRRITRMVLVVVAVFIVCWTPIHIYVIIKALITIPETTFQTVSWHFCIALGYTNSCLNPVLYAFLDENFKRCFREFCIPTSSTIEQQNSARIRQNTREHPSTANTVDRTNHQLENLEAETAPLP
T3 sequence (P42866 whole entry): as above

SMILES | Ratio (AD50 mouse writhing test / ED50 mouse diarrhea test) [1] | ED50 [1] | AD50 (opioid receptor) | inhibition at 0.01 µM (mu receptor; [4]) | inhibition at 0.1 µM (mu receptor; [6]) | other results
C[C@H]1CN(CC(Cc2ccccc2)C(=O)NCC(=O)NCC(=O)NCc2ccccc2)CC[C@@]1(C)c1cccc(O)c1 (relative stereo) [Example 73] | 11 | 1.73 mg/kg | 20 |  |  | Ki (mu receptor): 1.8 nM; inhibition at 0.01 µM (mu receptor; [2]): 84%; inhibition at 0.1 µM (mu receptor; [3]): 90%
CCOC(=O)CN(C)C(=O)CNC(=O)C(Cc1ccccc1)CN1CC[C@@](C)(c2cccc(O)c2)[C@@H](C)C1 (relative stereo) [Example 75] | 71 | 0.073 mg/kg | 5.2 |  |  | Ki (mu receptor): 1.15 nM; inhibition at 0.01 µM (mu receptor; [2]): 90%; inhibition at 0.1 µM (mu receptor; [3]): 99%
CCNC(=O)CNC(=O)CNC(=O)C(Cc1ccccc1)CN1CC[C@@](C)(c2cccc(O)c2)[C@@H](C)C1 (relative stereo) [Example 77] | > 31 | 1.31 mg/kg | > 40 |  |  | Ki (mu receptor): 1.35 nM; inhibition at 0.01 µM (mu receptor; [2]): 88%; inhibition at 0.1 µM (mu receptor; [3]): 95%
COC(=O)COC(=O)CNC(=O)C(Cc1ccccc1)CN1CC[C@@](C)(c2cccc(O)c2)[C@@H](C)C1 (relative stereo) [Example 85] | 190 | 0.05 mg/kg | 9.5 | 93% |  | inhibition at 0.1 µM (mu receptor; [5]): 98%
CCCCCOC(=O)CNC(=O)C(Cc1ccccc1)CN1CC[C@@](C)(c2cccc(O)c2)[C@@H](C)C1 (relative stereo) [Example 86] | > 2353 | 0.017 mg/kg | > 40 | 74% | 91% | 
C[C@H]1CN(CC(Cc2ccccc2)C(=O)NCC(=O)OCC(N)=O)CC[C@@]1(C)c1cccc(O)c1 (relative stereo) [Example 87] | 27 | 0.71 mg/kg | 19 | 94% | 99% | 
CNC(=O)COC(=O)CNC(=O)C(Cc1ccccc1)CN1CC[C@@](C)(c2cccc(O)c2)[C@@H](C)C1 (relative stereo) [Example 88] | 193 | 0.07 mg/kg | 13.5 | 93% | 99% | 
CCNC(=O)COC(=O)CNC(=O)C(Cc1ccccc1)CN1CC[C@@](C)(c2cccc(O)c2)[C@@H](C)C1 (relative stereo) [Example 89] | < 1 | > 10 mg/kg | 6.0 | 94% | 99% | 
C[C@H]1CN(CC(Cc2ccccc2)C(=O)NCC(=O)OCC(=O)N(C)C)CC[C@@]1(C)c1cccc(O)c1 (relative stereo) [Example 90] | 22 | 0.1 mg/kg | 2.2 | 93% | 99% | 
C[C@H]1CN(CC(Cc2ccccc2)C(=O)NCC(=O)NCC2CCCCC2)CC[C@@]1(C)c1cccc(O)c1 (relative stereo) [Example 91] | 8 | 0.5 mg/kg | 4.0 | 69% |  | inhibition at 0.1 µM (mu receptor; [5]): 94%
COC1CCC(OC(=O)CNC(=O)C(Cc2ccccc2)CN2CC[C@@](C)(c3cccc(O)c3)[C@@H](C)C2)CC1 (relative stereo) [Example 92] | 1540 | 0.005 mg/kg | 7.7 | 85% |  | inhibition at 0.1 µM (mu receptor; [5]): 97%
C[C@H]1CN(CC(Cc2ccccc2)C(=O)NCC(=O)OCC(=O)NCc2ccccc2)CC[C@@]1(C)c1cccc(O)c1 (relative stereo) [Example 93] | 3625 | 0.008 mg/kg | 29.0 | 81% | 95% | 
CC(=O)OC(C)OC(=O)CNC(=O)C(Cc1ccccc1)CN1CC[C@@](C)(c2cccc(O)c2)[C@@H](C)C1 (relative stereo) [Example 94] | 2222 | 0.009 mg/kg | 20 | 76% | 95% | 
Cc1oc(=O)oc1COC(=O)CNC(=O)C(Cc1ccccc1)CN1CC[C@@](C)(c2cccc(O)c2)[C@@H](C)C1 (relative stereo) [Example 95] | 14 | 0.19 mg/kg | 2.7 | 79% |  | inhibition at 0.1 µM (mu receptor; [5]): 94%
CCOC(=O)C(Cc1ccccc1)CN1CC[C@@](C)(c2cccc(OC)c2)[C@@H](C)C1 (single isomer, unassigned) [Example 78B] | 29 | 0.055 mg/kg | 1.6 | 0% | 2% | 
COc1cccc([C@]2(C)CCN(CC(Cc3ccccc3)C(=O)O)C[C@@H]2C)c1 (single isomer, unassigned) [Example 79] | 13 | 0.13 mg/kg | 1.7 | 0% | 15% | 
CNC(=O)C(Cc1ccccc1)CN1CC[C@@](C)(c2cccc(OC)c2)[C@@H](C)C1 (single isomer, unassigned) [Example 80] | 24 | 0.16 mg/kg | 3.9 | 0% | 37% | 
CCOC(=O)CNC(=O)C(Cc1ccccc1)CN1CC[C@@](C)(c2cccc(OC)c2)[C@@H](C)C1 (single isomer, unassigned) [Example 81] | 4 | 3.28 mg/kg | 13.2 | 21% | 55% | 
CNC(=O)CNC(=O)C(Cc1ccccc1)CN1CC[C@@](C)(c2cccc(OC)c2)[C@@H](C)C1 (single isomer, unassigned) [Example 82] | 17 | 0.055 mg/kg | .95 | 31% | 73% | 
CCNC(=O)CNC(=O)C(Cc1ccccc1)CN1CC[C@@](C)(c2cccc(OC)c2)[C@@H](C)C1 (single isomer, unassigned) [Example 83] | 2 | 0.04 mg/kg | 0.71 | 52% | 83% | 
CC(C)COC(=O)CNC(=O)C(Cc1ccccc1)CN1CC[C@](C)(c2cccc(O)c2)[C@H](C)C1 (single isomer, unassigned) [Example 98D] |  |  |  |  |  | Ratio (AD50 mouse writhing test / ED50 mouse diarrhea test) ([1]; listed as 98D*): 4; Ratio (AD50 mouse writhing test / ED50 mouse diarrhea test) ([1]; listed as 98D**): 255; ED50 (diarrhea) ([1]; listed as 98D**): 0.06; ED50 (diarrhea) ([1]; listed as 98D*): 0.76; % displacement at 100 nM (mu receptor): 96%; inhibition at 0.01 µM (mu receptor; [7]): 80%; inhibition at 0.01 µM (mu receptor; [2]): 57%; inhibition at 0.1 µM (mu receptor; [3]): 92%; AD50 (opioid receptor; listed as 98D**, 1.25 mg/kg): 15.3; AD50 (opioid receptor; listed as 98D*, 1.25 mg/kg): 2.9
C[C@@H]1CN(CC(Cc2ccccc2)C(=O)NCC(=O)O)CC[C@]1(C)c1cccc(O)c1 (single isomer, unassigned) [Example 98E] | 62 | 0.1 mg/kg | 6.2 |  |  | inhibition at 0.01 µM (mu receptor; [7]): 69%; inhibition at 0.1 µM (mu receptor; [5]): 87%
C[C@H]1CN(CC(Cc2ccccc2)C(=O)NCC(=O)O)CC[C@@]1(C)c1cccc(O)c1 (single isomer, unassigned; (+)) [Example 97E, monohydrate] | 127 | 0.07 mg/kg | 8.9 |  |  | inhibition at 0.01 µM (mu receptor; [7]): 80%; inhibition at 0.1 µM (mu receptor; [5]): 90%
C[C@H]1CN(CC(CC2CCCCC2)C(=O)NCCC(=O)O)CC[C@@]1(C)c1cccc(O)c1 (stereo partly drawn) [Example 35, 3-[[3-[4-(3-hydroxyphenyl)-3,4-dimethyl-1-piperidinyl]-2-(cyclohexylmethyl)-1-oxopropyl]-amino]propanoic acid hydrochloride] | 667 | 0.06 mg/kg | 40 |  |  | Ki (mu receptor): 0.54 nM; inhibition at 0.01 µM (mu receptor; [2]): 98%; inhibition at 0.1 µM (mu receptor; [3]): 100%
